Among the data in ChEMBL document CHEMBL1151593, “Synthesis and nti-tubulin activity of aza-combretastatins” (Bioorg Med Chem Lett, 1994) are IC50 values, retold here.

Molecules are shown by their SMILES. Where only a bound is given, the exact number is not on record here.

The target in the test is Tubulin alpha chain (Sus scrofa, UniProt P02550). As to the kind of experiment: Evaluated for the inhibitory concentration against porcine brain tubulin polymerization. Type of test: functional.
Chain of Tubulin alpha chain (P02550 whole entry, looked up): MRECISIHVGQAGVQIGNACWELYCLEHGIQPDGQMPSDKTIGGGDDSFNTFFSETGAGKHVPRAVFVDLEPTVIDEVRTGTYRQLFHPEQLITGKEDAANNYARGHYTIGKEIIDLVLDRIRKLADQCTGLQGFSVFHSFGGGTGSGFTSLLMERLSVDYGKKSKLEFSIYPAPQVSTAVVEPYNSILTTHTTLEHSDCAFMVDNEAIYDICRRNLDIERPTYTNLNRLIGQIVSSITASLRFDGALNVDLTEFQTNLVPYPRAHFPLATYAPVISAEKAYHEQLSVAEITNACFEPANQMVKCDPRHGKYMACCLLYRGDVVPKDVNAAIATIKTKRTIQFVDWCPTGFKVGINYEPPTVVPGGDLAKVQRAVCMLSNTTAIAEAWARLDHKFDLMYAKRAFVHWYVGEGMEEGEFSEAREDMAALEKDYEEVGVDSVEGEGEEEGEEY
The term IC50 denotes the concentration needed to halve the response being measured. Higher therefore signals weaker potency. On to `COc1ccc(CNc2cc(OC)c(OC)c(OC)c2)cc1O`, for which half-maximal inhibition (IC50) required 100 µM.

The compound `CCN(Cc1cc(OC)c(OC)c(OC)c1)c1ccc(OC)c(O)c1` had an IC50 of 15 µM.

The compound `COc1ccc(CN(C)c2cc(OC)c(OC)c(OC)c2)cc1O` showed an IC50 of 100 µM.

`CCCCCCN(Cc1cc(OC)c(OC)c(OC)c1)c1ccc(OC)c(O)c1` registered an IC50 of 20 µM.

Compound `COc1ccc(N(CCCCCO)Cc2cc(OC)c(OC)c(OC)c2)cc1O` gave an IC50 of 20 µM.

As to `COc1ccc(N(Cc2cc(OC)c(OC)c(OC)c2)C(C)=O)cc1O`, the IC50 was above 100 µM.

As for `COc1ccc(C(=O)N(C)c2cc(OC)c(OC)c(OC)c2)cc1O`, the IC50 was above 100 µM.

On to `COc1ccc(NC(=O)c2cc(OC)c(OC)c(OC)c2)cc1O`, for which the IC50 is above 100 µM.

Compound `COc1ccc(C(=O)Nc2cc(OC)c(OC)c(OC)c2)cc1O` showed an IC50 above 100 µM.

In the case of `CCCCN(Cc1cc(OC)c(OC)c(OC)c1)c1ccc(OC)c(O)c1`, the IC50 amounted to 7.5 µM.

With `CCC(=O)N(Cc1cc(OC)c(OC)c(OC)c1)c1ccc(OC)c(O)c1`, the IC50 was above 100 µM.

As for `CCCCCN(Cc1cc(OC)c(OC)c(OC)c1)c1ccc(OC)c(O)c1`, it took 20 µM to reach half-maximal inhibition (IC50).

As to `COc1ccc(N(C)C(=O)c2cc(OC)c(OC)c(OC)c2)cc1O`, the IC50 was above 100 µM.

On to `COc1ccc(N(CCCC(=O)O)Cc2cc(OC)c(OC)c(OC)c2)cc1O`, for which the IC50 was found to be 40 µM.

Take `CCCN(Cc1cc(OC)c(OC)c(OC)c1)c1ccc(OC)c(O)c1`: the IC50 is 5.4 µM.

`COc1ccc(NCc2cc(OC)c(OC)c(OC)c2)cc1O` had an IC50 of 100 µM.

As to `COc1ccc(N(C)Cc2cc(OC)c(OC)c(OC)c2)cc1O`, the IC50 was 45 µM.
